According to PMC11836371, “Virtual fragment screening for DNA repair inhibitors in vast chemical space” (Nature Communications, 2025):
Values joined by “and” are separate entries in the source; they are usually repeats but may differ in a detail not shown here. Equal entries are not always repeated. Where two headings read alike, the source gives them in different places.

Key:
[1] = system: NF-κB activation in HEK293T pGF NF-κB cells; assay: TNF-α induced NF-κB activation assay; format: cell-based; conditions: Homo sapiens, HEK-293T; NFκB activation assay; ± SD; read-out: pEC50 (converted)
Procedure: The inhibition of TNF-α induced NF-κB activation was measured in HEK293T cells transfected with the pGreenfire NF-κB plasmid. This is a plasmid that has NF-κB response elements (TRE) coupled to GFP and luciferase expression. When the NF-κB is activated by TNF-α, it binds to the TRE and induces GFP expression, and the fluorescence can be measured in a plate reader. The cells were authenticated with STR profiling, frozen down and these stocks were used in experiments. The HEK293T pGF NF-κB cells were kept in DMEM with 5% FBS and 1% P/S but, when seeded for the assay the medium was changed to DMEM FluoroBrite with 1% dialyzed FBS. All cell culture reagents were purchased from Thermo Fisher Scientific. Compounds were nano-dispensed (Echo acoustic dispenser) in 96-well, black/clear, assay plates (Corning #3904), duplicate plates, in 8-points dose-response curves, 1:2 dilutions, with DMSO compensation (0.3% DMSO). Cells were seeded at 30000 cells/well in medium containing 10 ng/mL of TNF-α (Sigma-Aldrich), except negative control wells which only contained cells in medium. Cells were cultured for 24 hours in a humidified incubator at 37 °C with 5% CO2 after which the GFP fluorescence was measured in a Sense plate reader (Hidex) with ex485/em535. The RFU data from the duplicate plates were combined to calculate % inhibition of NF-κB activation and IC50-values were calculated using XLfit (IDBS). In parallel with the NF-κB assay, a CellTiterGlo (Promega) cell viability assay was run to exclude compounds affecting cell viability. Compounds were nano-dispensed (Echo acoustic dispenser) in assay plates in 11-points dose-response curves, 1:3 dilutions, without DMSO compensation, with duplicates on the same plate. Cells were seeded at 7500 cells/well in 25 µL medium (DMEM FluoroBrite with 1% dialyzed FBS) containing 10 ng/mL TNF-α and cultured for 24 hours, with column 24 containing only culture medium. After equilibration to room temperature, the CellTiterGlo reagents were mixed and 25 µL/well were added to the cell plate. After 2 min mixing of the plate on an orbital shaker, the plate was incubated for 10 min at room temperature followed by luminescence reading in Sense. The cell viability was calculated compared to untreated control wells and the EC50 values were determined in XLfit (IDBS). […]

[2] = target: T1, human OGG1 enzyme (Homo sapiens, UniProt O15527); assay: OGG1 glycosylase activity assay (enzyme inhibition, APE1-coupled fluorescence); format: biochemical
T1 sequence (O15527 whole entry): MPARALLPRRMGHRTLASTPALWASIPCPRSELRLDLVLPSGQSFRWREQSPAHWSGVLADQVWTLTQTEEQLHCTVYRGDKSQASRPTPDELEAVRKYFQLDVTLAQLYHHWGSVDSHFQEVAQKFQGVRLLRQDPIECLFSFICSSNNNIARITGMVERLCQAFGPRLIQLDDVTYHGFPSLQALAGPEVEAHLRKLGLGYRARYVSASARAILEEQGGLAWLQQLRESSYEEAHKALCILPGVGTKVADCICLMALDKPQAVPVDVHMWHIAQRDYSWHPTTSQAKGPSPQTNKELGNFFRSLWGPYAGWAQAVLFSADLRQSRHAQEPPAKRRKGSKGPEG

[3] = target: T1, human OGG1 enzyme; assay: Differential scanning fluorimetry (DSF) thermal shift assay; format: binding; set-up: ∆Tm (K): unit of the concentration uncertain
Procedure: The temperature was increased from 20 °C to 85 °C with 10 readings/degree. Tm values were calculated using an excel template and fitting to the Boltzmann equation in Prism v.6.07 (GraphPad Software).

[4] = system: BJhTERT cells; assay: Cell viability assay (resazurin), BJhTERT non-transformed control; format: cell-based; conditions: BJhTERT, 100 μM, two independent experiments
Procedure: (§1) A2780, HCT116, and HEK293T cell lines were authenticated with STR profiling, frozen down, and these stocks were used in experiments. […] All media were supplemented with 10% FBS and 1% P/S. All cell culture media, additives, and reagents were purchased from Thermo Fisher Scientific. The cell plates were incubated 72 hours in a humidified incubator at 37 °C with 5% CO2, after which resazurin (Sigma-Aldrich), 10 µL/well, was added to a final concentration of 10 µg/mL. […] The cell viability was calculated compared to untreated control wells and the EC50 values were determined in XLfit (IDBS).

[5] = as above; format: cell-based; conditions: human, BJhTERT, 100 μM, two independent experiments; read-out: percentage cell viability
Procedure: as §1

[6] = system: HCT116 cells; assay: Cancer cell viability assay (resazurin), HCT116; format: cell-based; conditions: two independent experiments; for percentage cell viability: HCT116, 100 μM, 100 µM; for viability at 100 µM: Homo sapiens, HCT-116, HCT116, 100 μM, read-out: percentage cell viability
Procedure: (§2) Three different cancer cell lines A2780 (ovarian cancer, ECACC 93112519), A549 (lung cancer, ATCC 60150896) and HCT116 (colon cancer, ATCC CCL-247), and one immortalized fibroblast cell line (BJhTERT) as control, were seeded in black/clear 384-well plates (Corning #3764), 50 µL/well, containing 11 concentrations, nano-dispensed, dose-response curves of the test compounds. A2780, HCT116, and HEK293T cell lines were authenticated with STR profiling, frozen down, and these stocks were used in experiments. The A2780 cells were cultured in RPMI 1640, the A549 and BJhTERT cells in DMEM, and the HCT116 cells in McCoys 5 A medium. All media were supplemented with 10% FBS and 1% P/S. All cell culture media, additives, and reagents were purchased from Thermo Fisher Scientific. The cell plates were incubated 72 hours in a humidified incubator at 37 °C with 5% CO2, after which resazurin (Sigma-Aldrich), 10 µL/well, was added to a final concentration of 10 µg/mL. The plates were incubated for 6 hours with resazurin followed by fluorescence readings in a Sense plate reader (Hidex), resorufin protocol (ex 544 nm/em 595 nm). The cell viability was calculated compared to untreated control wells and the EC50 values were determined in XLfit (IDBS).

[7] = system: A2780 cells; assay: Cancer cell viability assay (resazurin), A2780; format: cell-based; conditions: two independent experiments; for percentage cell viability: A2780, 100 μM, 100 µM; for viability at 100 µM: Homo sapiens, A2780, A2780, 100 μM, read-out: percentage cell viability
Procedure: as §2

[8] = system: A549 cells; assay: Cancer cell viability assay (resazurin), A549; format: cell-based; conditions: two independent experiments; for percentage cell viability: A549, 100 μM, 100 µM; for viability at 100 µM: Homo sapiens, A549, A549, 100 μM, read-out: percentage cell viability
Procedure: as §2

[9] = target: MTH1 (Homo sapiens, UniProt P36639); assay: biochemical
Procedure: Inhibition of the following enzymes was assessed in the selectivity assays: apurinic/apyrimidinic endonuclease (APE1), endonuclease 8-like 1 (NEIL1), oxidized purine nucleoside triphosphate hydrolase (MTH1) and single-strand selective monofunctional uracil DNA glycosylase (SMUG1). BER enzymes were assayed with a similar strategy as OGG1, using identical DNA sequences surrounding the substrate lesion and the same reaction buffer containing 2 nM APE1. To assess SMUG1 inhibition, a 375 nM substrate containing uracil opposite guanine and 0.3 U SMUG1 enzyme (M0336 from New England Biolabs) was used. To assess NEIL1 inhibition, a 20 nM substrate containing thymidine glycol opposite adenine and 10 nM NEIL1 was used. To assess APE1 inhibition, an UNG2 substrate was pre-treated with E. coli Uracil-DNA glycosylase (New England Biolabs M0280) to generate an AP-site opposite adenine, which was used at 10 nM concentration in the presence of 0.1 nM APE1. All BER inhibition assays were in the linear range and less than 40% of the total substrate had been consumed at readout. The experiments were performed in three independent replicates and the percentage inhibition was calculated relative to the signal of a DMSO-treated control. To assess MTH1 inhibition, MTH1-catalyzed dGTP hydrolysis was coupled to inorganic pyrophosphatase (PPase), thereby releasing inorganic phosphate. The produced free phosphate was then detected using the malachite green assay[76]. […] Substrate concentration at the Km value for the respective substrate was chosen if possible. Inhibition using 100 μM compound was tested in reaction buffer (100 mM Tris-Acetate pH 8.0, 10 mM magnesium acetate, 40 mM NaCl, 1 mM DTT, and 0.005% Tween-20). Samples were incubated with shaking at 22 °C for 15 minutes. The reaction was then stopped by the addition of the malachite green reagent[76]. Absorbance was read at 630 nm using a Hidex Sense plate reader after a period of incubation with the methylene green reagent of 15 minutes. The experiment was performed in three independent replicates and percentage inhibition was calculated relative to the signal of a DMSO-treated control.

[10] = 99 (unit uncertain) as printed in sheet footnote
[11] = Figure 3B source data, three independent experiments, read-out: IC50 OGG1
[12] = Table S5, ± SD, read-out: pIC50 (converted)

Row | SMILES | EC50 [1] | ∆Tm (K) ([3]; 99 μM) | percentage cell viability [4] | viability at 72 h, 100 µM [5] | IC50 [2, 12] | percentage cell viability [6] | viability at 100 µM [6] | percentage cell viability [7] | viability at 100 µM [7] | percentage cell viability [8] | viability at 100 µM [8] | further results
1 | Cc1cc(C)n(-c2ccc(CC(=O)Nc3noc4c3CCCC4)cc2)n1 [compound 7] | 35.5 µM | 5.5 K and 5.5 ± 1.2 K | – | – | – | – | – | – | – | – | – | OGG1 inhibition, dose-response (Figure2C) ([2]; Concentration (M) 9.67e-7): 16.25 and 10.96; OGG1 inhibition, dose-response (Figure2C) ([2]; Concentration (M) 1.93e-6): 24.11 and 22.26; OGG1 inhibition, dose-response (Figure2C) ([2]; Concentration (M) 3.87e-6): 37.42 and 38.76; OGG1 inhibition, dose-response (Figure2C) ([2]; Concentration (M) 7.73e-6): 52.82 and 50.97; OGG1 inhibition, dose-response (Figure2C) ([2]; Concentration (M) 1.55e-5): 74.43 and 67.46; OGG1 inhibition, dose-response (Figure2C) ([2]; Concentration (M) 3.09e-5): 80.92 and 75.35; OGG1 inhibition, dose-response (Figure2C) ([2]; Concentration (M) 6.19e-5): 85.03 and 86.63; OGG1 inhibition, dose-response (Figure2C) ([2]; Concentration (M) 0.000124): 92.57 and 92.28; OGG1 inhibition, dose-response (Figure2C) ([2]; Concentration (M) 0.000248): 92.32 and 95.26; OGG1 inhibition, dose-response (Figure2C) ([2]; Concentration (M) 0.000495): 96.86 and 92.16; IC50 ([2]; read-out: IC50): 6.6 µM; ∆Tm (K) [3, 10]: 5.5 ± 1.2 K; ΔTm ([3]; concentration not given): 5.5 K
2 | Cc1cc(C2CC2)n(-c2ccc(CC(=O)Nc3noc4c3CCCC4)cc2)n1 [compound 9] | 9.12 µM | 6.6 ± 0.6 K | 80.1% | 73% | 3.72 µM | 86.44% | 81.6% | 25.03% | 21.5% | 68.3% | 68.1% | IC50 [2, 11]: 6.28 µM and 6.2 µM and 6.46 µM
3 | O=C(Cc1ccc(-n2nc(Cl)c3ccccc32)cc1)Nc1noc2c1CCCC2 [compound 12] | 5.5 µM | 2.3 K | 28.88% | 30.1% | 10.5 µM | 2.49% | 3.25% | 0.88% | 1.08% | 10.09% | 12.3% | –
4 | Cc1nn(-c2ccc(CC(=O)Nc3noc4c3CCCC4)cc2)c2ccc(N)cc12 [compound 14] | 6.61 µM | – | 41.42% | 38.5% | 9.77 µM | 30.89% | 26% | 5.95% | 3.81% | 28.85% | 28.3% | –
5 | Cc1nc(-c2ccc(CC(=O)Nc3noc4c3CCCC4)c(C)c2)c(C)[nH]1 [compound 19] | 10.5 µM | 7.4 ± 0.2 K | 24.77% | 15.2% | 0.813 µM | 6.65% | 5.31% | 2.96% | 2.43% | – | – | –
6 | Cc1nc(-c2ccc(CC(=O)Nc3noc4c3CCCC4)c(F)c2)c(C)[nH]1 [compound 20] | 20.4 µM | 8.6 ± 0.5 K | 24.23% | 23.9% | 0.741 µM | 15.72% | 13% | 2.93% | 2.84% | 35.78% | 35% | –
7 | Cc1[nH]c(Br)nc1-c1ccc(CC(=O)Nc2noc3c2CCCC3)cc1 [compound 21] | 11.5 µM | 5.9 K | 76% | 63.3% | 2.09 µM | 47.52% | 38.9% | 6.18% | 4.62% | 31.92% | 23.9% | –
8 | Cc1nc(-c2ccc(CC(=O)Nc3noc4c3CCCC4)nc2)c(C)[nH]1 [compound 22] | 28.2 µM | 6.3 K | 76.15% and 96.63% | – | 1.95 µM | 64.01% and 103.96% | – | 65.16% | 50.2% | 96.69% | 79.4% | –
9 | O=C(Cc1ccc(-n2ncc3c2CCNC3)cc1)Nc1noc2c1CCCC2 [compound 16] | > 31.6 µM | – | – | – | > 100 µM | – | – | – | – | – | – | –
10 | O=C(Cc1ccc(-n2ncc3ccncc32)cc1)Nc1noc2c1CCCC2 [compound 13] | 14.1 µM | – | – | – | 47.9 µM | – | – | – | – | – | – | –
11 | Cc1nc(-c2ccc(CC(=O)Nc3noc4c3CCCC4)cc2F)c(C)[nH]1 [compound 18] | 11.7 µM | 7.8 K | 41.01% | 38.1% | 0.832 µM | 53.92% | 45.2% | 4.22% | 3.84% | 56.99% | 53.3% | IC50 [2, 11]: 0.589 µM and 0.638 µM and 0.615 µM; IC50 [9]: 18.4 µM and 20 µM and 18.5 µM
12 | Cc1cc(C)n(-c2cc(F)c(CC(=O)Nc3noc4c3CCCC4)c(F)c2)n1 [compound 8] | 11.2 µM | 5.4 ± 0.5 K | 42.84% | 40.1% | – | 43.25% | 35.4% | 19.16% | 17.4% | 33.07% | 32.8% | IC50 ([2]; Table 1, mean ± SD, at least three independent replicates, read-out: pIC50 (converted)): 6.46 µM; ∆Tm (K) [3, 10]: 5.4 ± 0.5 K
13 | Cc1nn(-c2ccc(CC(=O)Nc3noc4c3CCCC4)cc2)c2ccccc12 [compound 10] | 6.61 µM | 4.8 ± 0.4 K | 8.77% | 8.08% | 1.29 µM | 2.45% | 2% | 1.45% | 0.84% | 6.63% | 5.97% | –
